From the supplement of paper PMC11208160

Assay: recombinant barcode read abundance after kanamycin selection (control-corrected) (log10(CPM+1)); higher = more efficient recombination; sequences stand for … in AGTGCAGAGAAAATCGGCCAGTTTTCTCTGCCTGCAGTCCGCATGCCGT…ATTTATGCAGCGGACTGCCTTTCTCCCAAAGTGATAAACCGGACAGTATCATGGACCGGTTTTCCCGGTAATCCGTATTTGCAAGGTTGGTTTCACT; site = the 11-nt target
How it was run: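 Targets were screened in pooled form in E. coli against IS621 bridge RNA target-binding loops. Recombination efficiency is based on barcode counts at recombinant junctions in counts per million, averaged and corrected for the control. Numbers are shown as log10(CPM+1), with duplicate plates on chloramphenicol/ampicillin LB agar (control) or chloramphenicol/ampicillin/kanamycin with 0.1 mM IPTG.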

Sequence	recombinant barcode read abundance (log10)
AAACAGTCTTGGGTTCTAACCTGTTGCCTTC [AAACAGTCTAG_LTGcore_CT_RTGcore_GA] (site AAACAGTCTAG) (LTG core: CT, RTG core: GA)	1.45
TCGCGACCTTGGGTTCTAACCTGTTGCCGAA [TCGCGACCTCG_LTGcore_CT_RTGcore_TT] (site TCGCGACCTCG) (LTG core: CT, RTG core: TT)	0.666
GGCTCCCCTTGGGTTCTAACCTGTTGCGGTT [GGCTCCCCTCC_LTGcore_CT_RTGcore_AA] (site GGCTCCCCTCC) (LTG core: CT, RTG core: AA)	0.285
AGGAGGTCTTGGGTTCTAACCTGTTGCCTAT [AGGAGGTCTAG_LTGcore_CT_RTGcore_AT] (site AGGAGGTCTAG) (LTG core: CT, RTG core: AT)	0.407
GAGCCCAAATGGGTTCTAACCTGTTGCCTTT [GAGCCCACTAG_LTGcore_AA_RTGcore_AA] (site GAGCCCACTAG) (LTG core: AA, RTG core: AA)	0.102
GGGAGCCCTTGGGTTCTAACCTGTTGCTGAT [GGGAGCCCTCA_LTGcore_CT_RTGcore_AT] (site GGGAGCCCTCA) (LTG core: CT, RTG core: AT)	0.599
AGGCGGTACTGGGTTCTAACCTGTTGCTTAG [AGGCGGTCTAA_LTGcore_AC_RTGcore_CT] (site AGGCGGTCTAA) (LTG core: AC, RTG core: CT)	0.272
AGTCTTAGCTGGGTTCTAACCTGTTGCCAAG [AGTCTTACTTG_LTGcore_GC_RTGcore_CT] (site AGTCTTACTTG) (LTG core: GC, RTG core: CT)	0.0805
AAACAGTTATGGGTTCTAACCTGTTGCCTAG [AAACAGTCTAG_LTGcore_TA_RTGcore_CT] (site AAACAGTCTAG) (LTG core: TA, RTG core: CT)	0.0345
TTATAAACTTGGGTTCTAACCTGTTGCCTAG [TTATAAACTAG_LTGcore_CT_RTGcore_CT] (site TTATAAACTAG) (LTG core: CT, RTG core: CT)	0.894
CGGTCCCGTTGGGTTCTAACCTGTTGCCAAG [CGGTCCCCTTG_LTGcore_GT_RTGcore_CT] (site CGGTCCCCTTG) (LTG core: GT, RTG core: CT)	0.292
GAGTCCTGGTGGGTTCTAACCTGTTGCCTCC [GAGTCCTCTAG_LTGcore_GG_RTGcore_GG] (site GAGTCCTCTAG) (LTG core: GG, RTG core: GG)	0.0289
TAAGAATTTTGGGTTCTAACCTGTTGCCTAG [TAAGAATCTAG_LTGcore_TT_RTGcore_CT] (site TAAGAATCTAG) (LTG core: TT, RTG core: CT)	0.0485
ATGTCCCATTGGGTTCTAACCTGTTGCTCAT [ATGTCCCCTGA_LTGcore_AT_RTGcore_AT] (site ATGTCCCCTGA) (LTG core: AT, RTG core: AT)	0.0551
ACGGGACCTTGGGTTCTAACCTGTTGCAGTG [ACGGGACCTCT_LTGcore_CT_RTGcore_CA] (site ACGGGACCTCT) (LTG core: CT, RTG core: CA)	0.172
TCGCGACGGTGGGTTCTAACCTGTTGCCGCC [TCGCGACCTCG_LTGcore_GG_RTGcore_GG] (site TCGCGACCTCG) (LTG core: GG, RTG core: GG)	0.0807
TGATACCAGTGGGTTCTAACCTGTTGCGTAG [TGATACCCTAC_LTGcore_AG_RTGcore_CT] (site TGATACCCTAC) (LTG core: AG, RTG core: CT)	0.0989
GAGCCCAACTGGGTTCTAACCTGTTGCCTAG [GAGCCCACTAG_LTGcore_AC_RTGcore_CT] (site GAGCCCACTAG) (LTG core: AC, RTG core: CT)	0.135
